Experimental findings from patent US8431563B2 (priority 2010, dated 2013) are described below.

Where two headings read alike, the source gives them in different places.

Assay [1] concerns the target T1, interaction between glucokinase (GK) and glucokinase regulatory protein (GKRP) (Homo sapiens, UniProt Q14397).
T1 sequence (Q14397 1-625): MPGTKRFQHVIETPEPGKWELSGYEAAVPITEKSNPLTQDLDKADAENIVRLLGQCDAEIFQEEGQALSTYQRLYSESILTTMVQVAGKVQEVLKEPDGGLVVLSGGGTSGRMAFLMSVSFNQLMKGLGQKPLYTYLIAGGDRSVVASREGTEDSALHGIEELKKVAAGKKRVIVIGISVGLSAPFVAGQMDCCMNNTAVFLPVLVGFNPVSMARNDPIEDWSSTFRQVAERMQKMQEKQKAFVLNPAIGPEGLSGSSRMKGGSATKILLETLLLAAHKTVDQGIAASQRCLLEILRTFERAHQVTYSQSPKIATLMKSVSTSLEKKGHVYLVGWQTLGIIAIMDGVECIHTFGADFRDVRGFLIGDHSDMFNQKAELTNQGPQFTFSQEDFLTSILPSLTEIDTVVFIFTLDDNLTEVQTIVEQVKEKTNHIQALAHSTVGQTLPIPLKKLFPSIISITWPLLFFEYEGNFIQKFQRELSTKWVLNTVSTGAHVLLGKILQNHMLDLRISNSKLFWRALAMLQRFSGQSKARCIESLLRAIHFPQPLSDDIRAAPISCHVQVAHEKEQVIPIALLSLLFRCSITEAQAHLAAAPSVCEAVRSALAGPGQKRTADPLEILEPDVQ
The assay can be described thus: biochemical. It counts as binding. The essentials:
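Avi-tagged human GKRP preincubated with compound for 20 min at room temperature, then 6 nM GK-fluorescein (concentration of added solution) introduced and incubated 2 h in the dark. Buffer: 20 mM Tris pH 7.5, 0.05% BSA, 1 mM DTT, 1 μM sorbitol-6-phosphate. Plate read on a fluorescence reader.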

Assay [2] has as its target T2, GKRP (Glucokinase Regulatory Protein) with human His-hepatic GK (Homo sapiens, UniProt Q14397).
T2 sequence (Q14397 1-625): T1 sequence (Q14397 1-625)
Briefly: biochemical. The essentials:
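Human His-tagged hepatic GK (30 nM in the 5× working stock) in 50 mM Tris pH 7.5, 4 mM MgCl2, 6% DMSO with DTT, BSA and Brij-35. Enzyme was added after a 30 min step and reacted 30 min at room temperature. The reaction was stopped with acetonitrile and 13C-glucose-6-phosphate formed from 13C-glucose was quantified by LC MS/MS.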

The mark [3] stands for this setting: avi-tagged GKRP, GK-fluorescein, AlphaScreen beads, read-out: GK-GKRP IC50 (Binding).
Where [4] appears, read: 13C-glucose-6-phosphate formation, 280 nM GKRP (10×), 30 nM GK (5×), read-out: GK-GKRP EC50 (LC MS/MS-2).
[5] abbreviates: read-out: GK-GKRP IC50 (Binding).
The mark [6] stands for this setting: read-out: GK-GKRP EC50 (LC MS/MS-2).

Turning to `CC(C)CN(C[C@H]1CN(S(=O)(=O)c2cccs2)CCN1c1ccc(C(C)(O)C(F)(F)F)cc1)S(C)(=O)=O` (mixture of isomers) [Example 201, N-(2-methylpropyl)-N-(((2S)-4-(2-thiophenylsulfonyl)-1-(4-(2,2,2-trifluoro-1-hydroxy-1-methylethyl)phenyl)-2-piperazinyl)methyl)methanesulfonamide], the IC50 (commonly the point on the concentration scale where inhibition reaches its midpoint) in assay [1] (setting [3]) is 4 nM. Further, the EC50 in assay [2] (setting [4]) came out at 14 nM.

`CC(O)(c1ccc(N2CCN(S(=O)(=O)c3cccs3)C[C@@H]2CN(CC2CC2)S(C)(=O)=O)cc1)C(F)(F)F` (mixture of isomers) [Example 202, N-(cyclopropylmethyl)-N-(((2S)-4-(2-thiophenylsulfonyl)-1-(4-(2,2,2-trifluoro-1-hydroxy-1-methylethyl)phenyl)-2-piperazinyl)methyl)methanesulfonamide]: in assay [1] (setting [3]), the IC50 is 26 nM. Also, the EC50 in assay [2] (setting [4]) is 39 nM.

As for `CC(O)(c1ccc(N2CCN(S(=O)(=O)c3cccs3)CC2CN2C3COCC2C(O)C3)cc1)C(F)(F)F` (single isomer, unassigned) [Example 77 Peak #2], the IC50 in assay [1] (setting [3]) stood at 11 nM. The EC50 in assay [2] (setting [4]) stood at 19 nM.

As to `CC(O)(c1ccc(N2CCN(S(=O)(=O)c3cccs3)CC2CN2C3COCC2C(O)C3)cc1)C(F)(F)F` (single isomer, unassigned) [Example 77 Peak #3], the IC50 in assay [1] (setting [3]) came to 29 nM. Also, the EC50 in assay [2] (setting [4]) was 58 nM.

On to `CC(O)(c1ccc(N2CCN(S(=O)(=O)c3cccs3)C[C@@H]2CN2C3COCC2C(O)C3)cc1)C(F)(F)F` (single isomer, unassigned) [Example 78 Peak #1], for which the 50% inhibitory concentration (IC50) in assay [1] (setting [3]) turned out to be 44 nM. In addition, the EC50 in assay [2] (setting [4]) was determined as 146 nM.

In the case of `CC(O)(c1ccc(N2CCN(S(=O)(=O)c3cccs3)C[C@@H]2CN2C3COCC2C(O)C3)cc1)C(F)(F)F` (single isomer, unassigned) [Example 78 Peak #2], the IC50 in assay [1] (setting [3]) turned out to be 49 nM. Moreover, the EC50 in assay [2] (setting [4]) stood at 60 nM.

Take `CC(O)(c1ccc(N2CCN(S(=O)(=O)c3cccs3)C[C@@H]2CN2C3COCC2C(O)C3)cc1)C(F)(F)F` (single isomer, unassigned) [Example 78 Peak #3]: the IC50 in assay [1] (setting [3]) came to 33 nM. Besides, the EC50 in assay [2] (setting [4]) worked out at 36 nM.

`CC(O)(c1ccc(N2CCN(S(=O)(=O)c3cccs3)C[C@@H]2CN2C3COCC2C(O)C3)cc1)C(F)(F)F` (single isomer, unassigned) [Example 78 Peak #4]: in assay [1] (setting [3]), the IC50 came to 40 nM. For the same molecule, the EC50 in assay [2] (setting [4]) was 46 nM.

Consider `O=S(=O)(c1cccs1)N1CCN(c2ncc(C(O)(C(F)(F)F)C(F)(F)F)cn2)[C@@H](CN2C3COCC2C(O)C3)C1` (single isomer, unassigned) [Example 79 Peak #1], for which, in assay [1] (setting [3]), the IC50 is 49 nM. For the same molecule, the EC50 in assay [2] (setting [4]) is 50 nM.

For the molecule `O=S(=O)(c1cccs1)N1CCN(c2ncc(C(O)(C(F)(F)F)C(F)(F)F)cn2)[C@@H](CN2C3COCC2C(O)C3)C1` (single isomer, unassigned) [Example 79 Peak #2], the IC50 in assay [1] (setting [3]) was found to be 32 nM. For the same molecule, in assay [2] (setting [4]), the EC50 amounted to 73 nM.

For `C[C@H]1COCCN1C[C@H]1CN(S(=O)(=O)c2cccs2)CCN1c1ccc(C(O)(CO)C(F)(F)F)cc1` (single isomer, unassigned) [Example 83 Peak #1], the IC50 in assay [1] (setting [3]) was found to be 32 nM. Moreover, in assay [2] (setting [4]), the EC50 stood at 68 nM.

For the molecule `C[C@H]1COCCN1C[C@H]1CN(S(=O)(=O)c2cccs2)CCN1c1ccc(C(O)(CO)C(F)(F)F)cc1` (single isomer, unassigned) [Example 83 Peak #2], in assay [1] (setting [3]), the IC50 was 22 nM. Moreover, the EC50 in assay [2] (setting [4]) was determined as 16 nM.

As to `CC(O)(c1ccc(N2CCN(S(=O)(=O)c3cccs3)C[C@@H]2CN2[C@@H]3COC[C@H]2CC(=O)C3)cc1)C(F)(F)F` (single isomer, unassigned) [Example 106 Peak#1], the IC50 in assay [1] (setting [3]) stood at 52 nM. In addition, the EC50 in assay [2] (setting [4]) stood at 88 nM.

Regarding `CC(O)(c1ccc(N2CCN(S(=O)(=O)c3cccs3)C[C@@H]2CN2[C@@H]3COC[C@H]2CC(=O)C3)cc1)C(F)(F)F` (single isomer, unassigned) [Example 106 Peak#2], the 50% inhibitory concentration (IC50) in assay [1] (setting [3]) was determined as 61 nM. Further, in assay [2] (setting [4]), the EC50 stood at 142 nM.

With `CC(O)(c1ccc(N2CCN(S(=O)(=O)c3cccs3)C[C@@H]2CN2CCOC[C@H]2CO)cc1)C(F)(F)F` (single isomer, unassigned) [Example 110 Peak #1], the IC50 in assay [1] (GK-GKRP IC50 (Binding)) was 101 nM. The molecule also gave an EC50 in assay [2] (GK-GKRP EC50 (LC MS/MS-2)) of 156 nM.

`CC(O)(c1ccc(N2CCN(S(=O)(=O)c3cccs3)C[C@@H]2CN2CCOC[C@H]2CO)cc1)C(F)(F)F` (single isomer, unassigned) [Example 110 Peak #2]: the IC50 in assay [1] (setting [5]) came out at 79 nM. Besides, the EC50 in assay [2] (setting [6]) came out at 132 nM.

Take `CC(O)(c1ccc(N2CCN(S(=O)(=O)c3cccs3)C[C@@H]2CN2CCOC[C@@H]2CO)cc1)C(F)(F)F` (single isomer, unassigned) [Example 111 Peak #1]: the IC50 in assay [1] (setting [3]) was 64 nM. Also, the EC50 in assay [2] (setting [4]) is 99 nM.

Take `CC(O)(c1ccc(N2CCN(S(=O)(=O)c3cccs3)C[C@@H]2CN2CCOC[C@@H]2CO)cc1)C(F)(F)F` (single isomer, unassigned) [Example 111 Peak #2]: the IC50 in assay [1] (setting [5]) amounted to 67 nM. The EC50 in assay [2] (setting [6]) amounted to 113 nM.

Regarding `CC(O)(c1ccc(N2CCN(S(=O)(=O)c3cccs3)C[C@@H]2CN2CCOCC2CNS(C)(=O)=O)cc1)C(F)(F)F` (single isomer, unassigned) [Example 112 Peak #1], the IC50 in assay [1] (setting [5]) is 275 nM. The EC50 in assay [2] (setting [6]) was found to be 986 nM.

For `CC(O)(c1ccc(N2CCN(S(=O)(=O)c3cccs3)C[C@@H]2CN2CCOCC2CNS(C)(=O)=O)cc1)C(F)(F)F` (single isomer, unassigned) [Example 112 Peak #2], the IC50 in assay [1] (GK-GKRP IC50 (Binding)) is 210 nM. The EC50 in assay [2] (GK-GKRP EC50 (LC MS/MS-2)) was 332 nM.

On to `CC(O)(c1ccc(N2CCN(S(=O)(=O)c3cccs3)C[C@@H]2CN2CCOCC2c2ccc(F)cc2)cc1)C(F)(F)F` (single isomer, unassigned) [Example 115 Peak #1], for which, in assay [1] (setting [3]), the IC50 came out at 589 nM. Further, the EC50 in assay [2] (setting [4]) is 308 nM.

In the case of `Cn1cnc(COC[C@H]2CN(S(=O)(=O)c3cccs3)CCN2c2ccc(C(C)(O)C(F)(F)F)cc2)c1` (single isomer, unassigned) [Example 119 Peak #1], the IC50 in assay [1] (setting [3]) is 972 nM. Also, the EC50 in assay [2] (setting [4]) is 235 nM.

On to `Cn1cnc(COC[C@H]2CN(S(=O)(=O)c3cccs3)CCN2c2ccc(C(C)(O)C(F)(F)F)cc2)c1` (single isomer, unassigned) [Example 119 Peak #2], for which, in assay [1] (setting [3]), the IC50 is 979 nM. The EC50 in assay [2] (setting [4]) amounted to 206 nM.

Turning to `C[C@H]1COCCN1C[C@H]1CN(S(=O)(=O)c2ccc(N)nc2)CCN1c1ccc([C@@](C)(O)C(F)(F)F)cc1` (single isomer, unassigned) [Example 125 Peak #1], the IC50 in assay [1] (setting [3]) came out at 4 nM. In assay [2] (setting [4]), the EC50 is 26 nM.

`C[C@H]1COCCN1C[C@H]1CN(S(=O)(=O)c2ccc(N)nc2)CCN1c1ccc(C(C)(O)C(F)(F)F)cc1` (single isomer, unassigned) [Example 125 Peak #2]: in assay [1] (setting [3]), the IC50 was 7 nM. Besides, the EC50 in assay [2] (setting [4]) was 18 nM.

For the molecule `CC1(C)C(=O)NCCN1C[C@H]1CN(S(=O)(=O)c2cccs2)CCN1c1ccc(C(C)(O)C(F)(F)F)cc1` (single isomer, unassigned) [Example 180 Peak #1], in assay [1] (setting [3]), the IC50 turned out to be 11 nM. For the same molecule, the EC50 in assay [2] (setting [4]) amounted to 40 nM.

In the case of `CC1(C)C(=O)NCCN1C[C@H]1CN(S(=O)(=O)c2cccs2)CCN1c1ccc(C(C)(O)C(F)(F)F)cc1` (single isomer, unassigned) [Example 180 Peak #2], the IC50 in assay [1] (setting [3]) came to 8 nM. The EC50 in assay [2] (setting [4]) was 42 nM.

Regarding `CC(C)C1C(=O)NCCN1C[C@H]1CN(S(=O)(=O)c2cccs2)CCN1c1ccc(C(C)(O)C(F)(F)F)cc1` (single isomer, unassigned) [Example 181 Peak #1], the IC50 in assay [1] (setting [3]) was 43 nM. Also, in assay [2] (setting [4]), the EC50 came to 63 nM.

Consider `CC(C)C1C(=O)NCCN1C[C@H]1CN(S(=O)(=O)c2cccs2)CCN1c1ccc(C(C)(O)C(F)(F)F)cc1` (single isomer, unassigned) [Example 181 Peak #2], for which the IC50 in assay [1] (setting [3]) was found to be 1 nM. The EC50 in assay [2] (setting [4]) was 14 nM.

As to `CC(C)C1C(=O)NCCN1C[C@H]1CN(S(=O)(=O)c2ccc(N)s2)CCN1c1ncc(C(O)(C(F)(F)F)C(F)(F)F)cn1` (single isomer, unassigned) [Example 184 Peak #1], the IC50 in assay [1] (setting [3]) was determined as 1 nM. Further, the EC50 in assay [2] (setting [4]) is 12 nM.
